Experimental findings from patent publication US9745360B2 (Sanofi, priority 2012, dated 2017) are described below.

*1 amine or outer side, *2 acyl side, *3 side chain or, on linkers, in order; H or OH if unused. Where a SMILES comes first, the peptide text is derived from it. Side-chain parts run from the residue outwards. [ ]: non-standard residue; d: D form. The star is where a group is joined. γGlu = O=C(O)[C@H](CCC(=O)[*:2])N[*:1]; Palmitoyl = CCCCCCCCCCCCCCCC(=O)*; αMeK = C[C@](N)(CCCCN)C(=O)O; Aib = CC(C)(N)C(=O)O

The EC50 is the concentration that produces a half-maximal response. As usually defined, the Cmax is the maximum level reached in the sampled fluid or tissue. As a reminder, the half-life is the time needed for the level to fall by half in the phase considered. Low values mean fast loss, high ones slow loss.

The target of data set [1] is T1, human GIP receptor (hGIP R) (Homo sapiens, UniProt P48546).
T1 construct: expressed in transfected cells
T1 sequence (P48546 22-466): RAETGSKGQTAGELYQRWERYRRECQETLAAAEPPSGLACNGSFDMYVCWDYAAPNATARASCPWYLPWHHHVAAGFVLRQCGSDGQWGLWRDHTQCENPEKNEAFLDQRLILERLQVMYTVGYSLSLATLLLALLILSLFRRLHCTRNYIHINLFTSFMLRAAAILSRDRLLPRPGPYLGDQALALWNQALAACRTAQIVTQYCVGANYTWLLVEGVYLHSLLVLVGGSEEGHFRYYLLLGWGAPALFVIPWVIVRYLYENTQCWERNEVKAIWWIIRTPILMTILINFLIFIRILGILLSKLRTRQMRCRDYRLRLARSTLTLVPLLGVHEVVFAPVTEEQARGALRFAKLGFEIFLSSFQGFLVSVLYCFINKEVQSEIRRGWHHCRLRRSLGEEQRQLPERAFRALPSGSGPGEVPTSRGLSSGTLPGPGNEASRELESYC
In words: cAMP response (HTRF) of HEK-293 cells stably expressing human GIP receptor. The format is cell-based. The note with it: Table 7; cAMP formation. The procedure:
cAMP content of cells was determined using a kit from Cisbio Corp. (cat. no. 62AM4PEC) based on HTRF (Homogenous Time Resolved Fluorescence). For preparation, cells were split into T175 culture flasks and grown overnight to near confluency in medium (DMEM/10% FBS). Medium was then removed and cells washed with PBS lacking calcium and magnesium, followed by proteinase treatment with accutase (Sigma-Aldrich cat. no. A6964). Detached cells were washed and resuspended in assay buffer (1×HBSS; 20 mM HEPES, 0.1% BSA, 2 mM IBMX) and cellular density determined. They were then diluted to 400000 cells/ml and 25 μl-aliquots dispensed into the wells of 96-well plates. For measurement, 25 μl of test compound in assay buffer was added to the wells, followed by incubation for 30 minutes at room temperature.
Background: Time-resolved FRET reads energy transfer from a long-lived donor to a nearby acceptor.

Data set [2] is described as follows: Pharmacokinetic testing in female Göttinger minipigs, s.c., LC/MS of plasma. In kind it is in vivo. Conditions: minipig, sc, Mini pigs, 0.1 mg/kg s.c. The procedure:
Pharmacokinetic profiles were determined as described in Methods.

Data set [3] is described as follows: Subchronic effect on body weight in female diet-induced obese (DIO) C57BL/6NCrl mice (method 2). In kind it is in vivo. Conditions: for Overall weight change: 3-week treatment, mean ± SEM; for decrease of body weight, relative change from baseline: 3 weeks. The procedure: Female C57BL/6NCrl mice were housed in groups in a specific pathogen-free barrier facility on a 12 h light/dark cycle with free access to water and high-fat diet. After 14 weeks on high-fat diet, mice were stratified to treatment groups (n=8), so that each group had similar mean body weight. An aged-matched group with ad libitum access to standard chow and water was included as standard control group.
Before the experiment, mice were subcutaneously (s.c.) injected with vehicle solution and weighed for 3 days to acclimate them to the procedures. […] Body weight was recorded daily.
Statistical analyses were performed with Everstat 6.0 by repeated measures two-way ANOVA and Dunnett's post-hoc analyses (glucose profile) and 1-way-ANOVA, followed by Dunnett's post-hoc test (body weight, body fat). Differences versus vehicle-treated DIO control mice were considered statistically significant at the p<0.05 level.
Subchronic effects of SEQ ID NO: 11 after subcutaneous treatment on body weight in female diet-induced obese (DIO) C57BL/6NCrl mice (14 weeks of prefeeding with high-rat diet, method 2)
Female obese C57BL/6NCrl mice were treated for 3 weeks once daily subcutaneously in the late afternoon, prior at the end of the light phase (12 h lights on) with 3 μg/kg and 10 μg/kg SEQ ID NO: 11 or vehicle. Body weight was recorded daily.

`CCCCCCCCCCCCCCCC(=O)N[C@@H](CCC(=O)NCCCC[C@H](NC(=O)[C@H](CCC(N)=O)NC(=O)[C@@H](NC(=O)[C@H](CO)NC(=O)[C@H](CC(C)C)NC(=O)[C@H](CC(=O)O)NC(=O)[C@H](CO)NC(=O)[C@@H](NC(=O)[C@H](Cc1ccccc1)NC(=O)[C@@H](NC(=O)CNC(=O)[C@H](CCC(=O)O)NC(=O)C(C)(C)NC(=O)[C@@H](N)Cc1ccc(O)cc1)[C@@H](C)O)[C@@H](C)O)[C@@H](C)CC)C(=O)N[C@@H](CCC(=O)O)C(=O)N[C@@H](CCC(=O)O)C(=O)N[C@@H](CCCNC(=N)N)C(=O)N[C@@H](C)C(=O)N[C@@H](C)C(=O)N[C@@](C)(CCCCN)C(=O)N[C@@H](CCC(=O)O)C(=O)N[C@@H](Cc1ccccc1)C(=O)N[C@H](C(=O)N[C@@H](CCC(=O)O)C(=O)N[C@@H](Cc1c[nH]c2ccccc12)C(=O)N[C@@H](CC(C)C)C(=O)N[C@@H](CCCCN)C(=O)N[C@@H](CC(N)=O)C(=O)N[C@H](C(=O)NCC(=O)N1CCC[C@H]1C(=O)N[C@@H](CO)C(=O)N[C@@H](CO)C(=O)NCC(=O)N[C@@H](C)C(=O)N1CCC[C@H]1C(=O)N1CCC[C@H]1C(=O)N1CCC[C@H]1C(=O)N[C@@H](CO)C(N)=O)[C@@H](C)O)[C@@H](C)CC)C(=O)O` [SEQ ID NO: 11, Y-Aib-E-G-T-F-T-S-D-L-S-I-Q-K(γE-x53)-E-E-R-A-A-(S)MeLys-E-F-I-E-W-L-K-N-T-G-P-S-S-G-A-P-P-P-S-NH2] (H-Y[Aib]EGTFTSDLSIQK([γGlu-Palmitoyl])EERAA[αMeK]EFIEWLKNTGPSSGAPPPS-NH2) came in with an EC50 in data set [1] of 7 pM. In data set [2], the Cmax was 302 ng/mL and the half-life is 756 min. In addition, in data set [3] (3 μg/kg s.c. once daily), the Overall weight change is -3.2 ± 0.6 g and the “decrease of body weight, relative change from baseline” value was 7.6%. In addition, in data set [3] (10 μg/kg s.c. once daily), the Overall weight change is -6.8 ± 0.7 g and the “decrease of body weight, relative change from baseline” value is given as 17.4%.
